Experiments:
Format in all cases: in vivo
Solanum nigrum (SOLNI) = experiment: B1 Post-Emergence Efficacy - Test 1; conditions: 1000 g/ha, after 13 days, five point scale
Procedure, shortened: (§1)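 Seeds sown in standard soil grow for 8 days under glasshouse conditions (24/16° C., 14 hours light, 65% humidity). Seedlings are then sprayed at 1000 g/ha from an acetone/water (50:50), 0.5% Tween 20 formulation. Damage is rated after 13 days on a five-point scale.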

[1] = test system: Ipomoea hederacea (IPOHE); experiment: B1 Post-Emergence Efficacy - Test 1; conditions: 1000 g/ha, after 13 days, five point scale
Procedure, shortened: as §1

[2] = test system: Amaranthus retoflexus (AMARE); experiment: B1 Post-Emergence Efficacy - Test 1; conditions: 1000 g/ha, after 13 days, five point scale
Procedure, shortened: as §1

Lolium perenne (LOLPE) [3] = experiment: B1 Post-Emergence Efficacy - Test 1; conditions: 1000 g/ha, after 13 days, five point scale
Procedure, shortened: as §1

Setaria faberi (SETFA) = experiment: B1 Post-Emergence Efficacy - Test 1; conditions: 1000 g/ha, after 13 days, five point scale
Procedure, shortened: as §1

[4] = test system: Echinochloa crus-galli (ECHCG); experiment: B1 Post-Emergence Efficacy - Test 1; conditions: 1000 g/ha, after 13 days, five point scale
Procedure, shortened: as §1

Brassica napus (BRSNN) = experiment: B2 Post-Emergence Efficacy - Test 2; conditions: 15 days after application, 0-100 scale
Method: (§2) Seeds of a variety of test species (see Table B1) were sown in standard soil in pots. After cultivation for 12 days (post-emergence) under controlled conditions in a glasshouse (at 24/18° C. or 20/16° C., at day/night; 16 hours light; 65% humidity), the plants were sprayed with an aqueous spray solution derived from the formulation of the technical active ingredient dissolved in IF50 (see Table B2 for composition) and adjuvant (Genapol X080) was added to the spray solution at a rate of 0.2% v/v.
(§3) After application, the test plants were grown in a glasshouse under controlled conditions (as above) and watered twice daily. Herbicidal activity was evaluated 15 days after application on a 0-100 scale. The results, where 0=no damage to test plant and 100=total kill of test plant are shown below in Tables 8 to 11.

Sinapis arvensis (SINAR) = experiment: B2 Post-Emergence Efficacy - Test 2; conditions: 15 days after application, 0-100 scale
Method: as §2, §3

Veronica persica (VERPE) = experiment: B2 Post-Emergence Efficacy - Test 2; conditions: 15 days after application, 0-100 scale
Method: as §2, §3

Kochia scoparia (KSHSC) = experiment: B2 Post-Emergence Efficacy - Test 2; conditions: 15 days after application, 0-100 scale
Method: as §2, §3

[5] = test system: Ipomoea hederacea (IPOHE); experiment: B2 Post-Emergence Efficacy - Test 2; conditions: 15 days after application, 0-100 scale
Method: as §2, §3

[6] = test system: Triticum aestivum (TRZAW); experiment: B2 Post-Emergence Efficacy - Test 2; conditions: 15 days after application, 0-100 scale
Method: as §2, §3

[7] = test system: Abutilon theophrasti (ABUTH); experiment: B2 Post-Emergence Efficacy - Test 2; conditions: 15 days after application, 0-100 scale
Method: as §2, §3

Stellaria media (STEME) = experiment: B2 Post-Emergence Efficacy - Test 2; conditions: 15 days after application, 0-100 scale
Method: as §2, §3

Beta vulgaris (BEAVA) = experiment: B2 Post-Emergence Efficacy - Test 2; conditions: 15 days after application, 0-100 scale
Method: as §2, §3

Hordeum vulgare (HORVW) = experiment: B2 Post-Emergence Efficacy - Test 2; conditions: 15 days after application, 0-100 scale
Method: as §2, §3

Lolium perenne (LOLPE) [8] = experiment: B2 Post-Emergence Efficacy - Test 2; conditions: 15 days after application, 0-100 scale
Method: as §2, §3

[9] = test system: Amaranthus retroflexus (AMARE); experiment: B2 Post-Emergence Efficacy - Test 2; conditions: 15 days after application, 0-100 scale
Method: as §2, §3

[10] = test system: Chenopodium album (CHEAL); experiment: B2 Post-Emergence Efficacy - Test 2; conditions: 15 days after application, 0-100 scale
Method: as §2, §3

Cc1nn(C)c(=O)c(-c2c(F)ccc(Cl)c2CCc2ccc(Cl)cc2)c1OC(=O)C(C)C [Compound 1.089, [5-[3-chloro-2-[2-(4-chlorophenyl)ethyl]-6-fluoro-phenyl]-1,3-dimethyl-6-oxo-pyridazin-4-yl] 2-methylpropanoate]
10: Herbicidal activity KCHSC (Kochia scoparia (KSHSC); 15 g/Ha) | Herbicidal activity HORVW (Hordeum vulgare (HORVW); 15 g/Ha) | Herbicidal activity HORVW (Hordeum vulgare (HORVW); 30 g/Ha)
5 (5=80-100%): percentage damage caused to the plant, SOLNI (Solanum nigrum (SOLNI)) | percentage damage caused to the plant, IPOHE [1] | percentage damage caused to the plant, AMARE [2] | percentage damage caused to the plant, LOLPE (Lolium perenne (LOLPE) [3]) | percentage damage caused to the plant, SETFA (Setaria faberi (SETFA)) | percentage damage caused to the plant, ECHCG [4]
70: Herbicidal activity SINAR (Sinapis arvensis (SINAR); 15 g/Ha) | Herbicidal activity VERPE (Veronica persica (VERPE); 15 g/Ha) | Herbicidal activity TRZAW ([6]; 500 g/Ha) | Herbicidal activity ABUTH ([7]; 15 g/Ha) | Herbicidal activity LOLPE (Lolium perenne (LOLPE) [8]; 30 g/Ha)
30: Herbicidal activity TRZAW ([6]; 125 g/Ha) | Herbicidal activity HORVW (Hordeum vulgare (HORVW); 250 g/Ha)
20: Herbicidal activity KCHSC (Kochia scoparia (KSHSC); 30 g/Ha) | Herbicidal activity TRZAW ([6]; 60 g/Ha) | Herbicidal activity HORVW (Hordeum vulgare (HORVW); 60 g/Ha) | Herbicidal activity HORVW (Hordeum vulgare (HORVW); 125 g/Ha)
80: Herbicidal activity BRSNN (Brassica napus (BRSNN); 15 g/Ha) | Herbicidal activity BRSNN (Brassica napus (BRSNN); 30 g/Ha) | Herbicidal activity SINAR (Sinapis arvensis (SINAR); 30 g/Ha) | Herbicidal activity VERPE (Veronica persica (VERPE); 30 g/Ha) | Herbicidal activity BEAVA (Beta vulgaris (BEAVA); 30 g/Ha) | Herbicidal activity BEAVA (Beta vulgaris (BEAVA); 60 g/Ha) | Herbicidal activity BEAVA (Beta vulgaris (BEAVA); 125 g/Ha) | Herbicidal activity LOLPE (Lolium perenne (LOLPE) [8]; 60 g/Ha) | Herbicidal activity AMARE ([9]; 15 g/Ha) | Herbicidal activity AMARE ([9]; 30 g/Ha) | Herbicidal activity CHEAL ([10]; 15 g/Ha)
60: Herbicidal activity KCHSC (Kochia scoparia (KSHSC); 125 g/Ha) | Herbicidal activity KCHSC (Kochia scoparia (KSHSC); 250 g/Ha) | Herbicidal activity KCHSC (Kochia scoparia (KSHSC); 500 g/Ha) | Herbicidal activity TRZAW ([6]; 250 g/Ha) | Herbicidal activity HORVW (Hordeum vulgare (HORVW); 500 g/Ha)
0: Herbicidal activity TRZAW ([6]; 15 g/Ha) | Herbicidal activity TRZAW ([6]; 30 g/Ha)
100: Herbicidal activity VERPE (Veronica persica (VERPE); 250 g/Ha) | Herbicidal activity VERPE (Veronica persica (VERPE); 500 g/Ha) | Herbicidal activity IPOHE ([5]; 15 g/Ha) | Herbicidal activity IPOHE ([5]; 30 g/Ha) | Herbicidal activity IPOHE ([5]; 60 g/Ha) | Herbicidal activity IPOHE ([5]; 125 g/Ha) | Herbicidal activity IPOHE ([5]; 250 g/Ha) | Herbicidal activity IPOHE ([5]; 500 g/Ha) | Herbicidal activity ABUTH ([7]; 60 g/Ha) | Herbicidal activity ABUTH ([7]; 125 g/Ha) | Herbicidal activity ABUTH ([7]; 250 g/Ha) | Herbicidal activity ABUTH ([7]; 500 g/Ha) | Herbicidal activity AMARE ([9]; 125 g/Ha) | Herbicidal activity AMARE ([9]; 250 g/Ha) | Herbicidal activity AMARE ([9]; 500 g/Ha) | Herbicidal activity CHEAL ([10]; 125 g/Ha) | Herbicidal activity CHEAL ([10]; 250 g/Ha) | Herbicidal activity CHEAL ([10]; 500 g/Ha)
90: Herbicidal activity BRSNN (Brassica napus (BRSNN); 60 g/Ha) | Herbicidal activity BRSNN (Brassica napus (BRSNN); 125 g/Ha) | Herbicidal activity BRSNN (Brassica napus (BRSNN); 250 g/Ha) | Herbicidal activity BRSNN (Brassica napus (BRSNN); 500 g/Ha) | Herbicidal activity SINAR (Sinapis arvensis (SINAR); 60 g/Ha) | Herbicidal activity SINAR (Sinapis arvensis (SINAR); 125 g/Ha) | Herbicidal activity SINAR (Sinapis arvensis (SINAR); 250 g/Ha) | Herbicidal activity SINAR (Sinapis arvensis (SINAR); 500 g/Ha) | Herbicidal activity VERPE (Veronica persica (VERPE); 60 g/Ha) | Herbicidal activity VERPE (Veronica persica (VERPE); 125 g/Ha) | Herbicidal activity ABUTH ([7]; 30 g/Ha) | Herbicidal activity STEME (Stellaria media (STEME); 15 g/Ha) | Herbicidal activity STEME (Stellaria media (STEME); 30 g/Ha) | Herbicidal activity STEME (Stellaria media (STEME); 60 g/Ha) | Herbicidal activity STEME (Stellaria media (STEME); 125 g/Ha) | Herbicidal activity STEME (Stellaria media (STEME); 250 g/Ha) | Herbicidal activity STEME (Stellaria media (STEME); 500 g/Ha) | Herbicidal activity BEAVA (Beta vulgaris (BEAVA); 15 g/Ha) | Herbicidal activity BEAVA (Beta vulgaris (BEAVA); 250 g/Ha) | Herbicidal activity BEAVA (Beta vulgaris (BEAVA); 500 g/Ha) | Herbicidal activity LOLPE (Lolium perenne (LOLPE) [8]; 125 g/Ha) | Herbicidal activity LOLPE (Lolium perenne (LOLPE) [8]; 250 g/Ha) | Herbicidal activity LOLPE (Lolium perenne (LOLPE) [8]; 500 g/Ha) | Herbicidal activity AMARE ([9]; 60 g/Ha) | Herbicidal activity CHEAL ([10]; 30 g/Ha) | Herbicidal activity CHEAL ([10]; 60 g/Ha)
50: Herbicidal activity KCHSC (Kochia scoparia (KSHSC); 60 g/Ha)
40: Herbicidal activity LOLPE (Lolium perenne (LOLPE) [8]; 15 g/Ha)
